From BigSolDB 2.1

Cl.Nc1ccccc1
solubility (mole fraction)
Details	288.15 K	298.15 K	308.15 K	318.15 K	328.15 K
in ethanol	0.082	0.098	0.115	0.134	0.155
in methanol	0.144	0.165	0.188	0.208	0.23
in n-propanol	0.047	0.057	0.07	0.083	0.098
